Laboratory results as given in patent US20060263802A1 (priority 2003, published 2006).

Tests used:
Format in all cases: binding
[1] = system: human monoclonal antibody CRJB
[2] = system: human monoclonal antibody CR57
[3] = system: human monoclonal antibody CRJA
[4] = system: human monoclonal antibody CRJB; remark: listed apart in the source
[5] = system: human monoclonal antibody CR57; remark: listed apart in the source
[6] = system: human monoclonal antibody CRJA; remark: listed apart in the source

Sequence | Binding of CRJB to linear peptide (PEPSCAN-ELISA signal) [1] | Binding of CR57 to linear peptide (PEPSCAN-ELISA signal) [2] | Binding of CRJA to linear peptide (PEPSCAN-ELISA signal) [3] | Binding of CRJB (10 μg/ml) to looped/cyclic peptide (PEPSCAN-ELISA signal) [4] | Binding of CR57 (10 μg/ml) to looped/cyclic peptide (PEPSCAN-ELISA signal) [5] | Binding of CRJA (10 μg/ml) to looped/cyclic peptide (PEPSCAN-ELISA signal) [6] | Binding of human monoclonal antibody CRJB to linear peptide (PEPSCAN-ELISA signal) [1] | Binding of human monoclonal antibody CR57 to linear peptide (PEPSCAN-ELISA signal) [2] | Binding of human monoclonal antibody CRJA to linear peptide (PEPSCAN-ELISA signal) [3] | Binding of CRJB to looped/cyclic peptide (PEPSCAN-ELISA signal) [4] | Binding of CR57 to looped/cyclic peptide (PEPSCAN-ELISA signal) [5] | Binding of CRJA to looped/cyclic peptide (PEPSCAN-ELISA signal) [6] | Binding of CRJB (10 μg/ml) to looped/cyclic peptide (PEPSCAN-ELISA) [4] | Binding of CR57 (10 μg/ml) to looped/cyclic peptide (PEPSCAN-ELISA) [5] | Binding of CRJA (10 μg/ml) to looped/cyclic peptide (PEPSCAN-ELISA) [6]
SCPNNLVVEDEGCTN | 114 | 83 | 88 | 69 | 82 | 85 | – | – | – | – | – | – | – | – | –
LHNPYPDYRWLRTVK | 106 | 79 | 86 | 93 | 99 | 93 | – | – | – | – | – | – | – | – | –
VHPLADPSTVFKDGD | – | – | – | – | – | – | 138 | 98 | 111 | 79 | 107 | 99 | – | – | –
TIFNKTLMEADAHYK | 123 | 107 | 100 | – | – | – | – | – | – | – | – | – | 91 | 114 | 96
GNVLIPEMQSSLLQQ | 120 | 96 | 85 | – | – | – | – | – | – | – | – | – | 103 | 99 | 78
GLRLMDGTWVAMQTS | 138 | 104 | 108 | – | – | – | – | – | – | – | – | – | 99 | 120 | 100
NLHDFRSDEIEHLVV | 113 | 83 | 97 | – | – | – | – | – | – | – | – | – | 62 | 90 | 86
HSRVFPSGKCSGVAV | 118 | 97 | 111 | 104 | 138 | 113 | – | – | – | – | – | – | – | – | –
NEILPSKGCLRVGGR | 130 | 104 | 97 | – | – | – | – | – | – | – | – | – | 111 | 104 | 105
DEGCTNLSGFSYMEL | 23 | 1 | 54 | 60 | 1 | 57 | – | – | – | – | – | – | – | – | –
FNKTLMEADAHYKSV | 141 | 111 | 86 | – | – | – | – | – | – | – | – | – | 129 | 124 | 101
YRWLRTVKTTKESLV | 117 | 46 | 68 | 70 | 69 | 58 | – | – | – | – | – | – | – | – | –
PYPDYRWLRTVKTTK | 93 | 65 | 84 | 92 | 88 | 76 | – | – | – | – | – | – | – | – | –
GVFFNGIILGPDGNV | 116 | 58 | 84 | – | – | – | – | – | – | – | – | – | 85 | 57 | 68
TCGFVDERGLYKSLK | 120 | 47 | 104 | – | – | – | – | – | – | – | – | – | 79 | 84 | 100
DALESIMTTKSVSFR | 120 | 104 | 105 | – | – | – | – | – | – | – | – | – | 127 | 127 | 110
LLQQHMELLESSVIP | 111 | 78 | 80 | – | – | – | – | – | – | – | – | – | 129 | 123 | 165
VAMQTSNETKWCPPD | 104 | 86 | 97 | – | – | – | – | – | – | – | – | – | 66 | 45 | 90
FRRLSHLRKLVPGFG | 108 | 90 | 106 | – | – | – | – | – | – | – | – | – | 54 | 128 | 111
FSYMELKVGYILAIK | 112 | 89 | 120 | 72 | 104 | 96 | – | – | – | – | – | – | – | – | –
VIPLVHPLADPSTVF | 141 | 69 | 92 | – | – | – | – | – | – | – | – | – | 92 | 77 | 84
PDYRWLRTVKTTKES | 85 | 76 | 83 | 72 | 79 | 90 | – | – | – | – | – | – | – | – | –
MELKVGYILAIKMNG | 141 | 76 | 92 | 93 | 71 | 66 | – | – | – | – | – | – | – | – | –
PSVADLDPYDRSLHS | 114 | 44 | 72 | 33 | 57 | 62 | – | – | – | – | – | – | – | – | –
TSNETKWCPPDQLVN | 111 | 97 | 88 | – | – | – | – | – | – | – | – | – | 57 | 134 | 96
LRLMDGTWVAMQTSN | 114 | 103 | 96 | – | – | – | – | – | – | – | – | – | 72 | 98 | 92
LLESSVIPLVHPLAD | 117 | 72 | 92 | – | – | – | – | – | – | – | – | – | 76 | 93 | 91
GPWSPIDIHHLSCPN | 114 | 68 | 72 | 78 | 78 | 97 | – | – | – | – | – | – | – | – | –
PHVNGVFFNGIILGP | 173 | 93 | 117 | – | – | – | – | – | – | – | – | – | 134 | 112 | 107
GRCHPHVNGVFFNGI | 113 | 117 | 100 | – | – | – | – | – | – | – | – | – | 102 | 110 | 104
